Data set [1] concerns Escherichia coli DapA. To be noted: cited from earlier work; for pKi: competitive inhibitors, structural analogues of pyruvate.
Data set [2] addresses T1, recombinant Mtb-DapA (Mtb-rDapA) (Mycobacterium tuberculosis, UniProt P9WP25). To be noted: for Inhibition of Mtb-rDapA (in words): pyruvate 500 μM, ASA 400 μM, up to millimolar concentrations.
Data set [3] deals with T2, Mtb-rDapA (Mycobacterium tuberculosis, UniProt P9WP25). The experiment in a line: LC-MS/MRM quantitation of THDP product of the coupled assay. The format is biochemical. The conditions noted are these: MRM, 1 mM KPA (saturating concentration). How it is done:
The activity of Mtb-rDapA and Mtb-rDapB in catalyzing formation of THDP was confirmed by LC/MS analysis. A reaction mixture contained 1 μg of Mtb-rDapA, 30 μg of Mtb-rDapB, 10 mM pyruvate, 1 mM ASA, 0.16 mM NADPH and 50 mM sodium phosphate buffer pH 7.4 run at 37 °C for 5 min using UV-Vis spectrophotometer for THDP formation. Mtb-rDapA and Mtb-rDapB were then inactivated at 55 °C for 5 min to preserve integrity of reaction products and reaction mixture passed through 10 kDa cutoff filter unit (Millipore, USA) to filter the proteins and centrifuged at 6800 × g. The flow-through containing reaction products was used in LC/MS analysis. In order to observe the effect of inhibitor on THDP formation we added α-KPA in the assay mixture. The sample was subjected to analysis on a LC/ESI-MS (Quattro Micro API, Waters) coupled to a UPLC inlet. The flow through was loaded onto an Acquity UPLC BEH shield RP18, […], 2.1 100 mm column comprising a mobile phase of buffer A (water, 0.1% formic acid) and buffer B (acetonitrile, 0.1% formic acid) at a flow rate of 0.2 ml min^−1. […] Quantitative analysis of THDP formation was carried out by assessment of peak area in multiple reactions monitoring (MRM) mode with precursor ion 172.3 of THDP and corresponding daughter ions 125.6 and 107.5 by using above mentioned LC-MS/MS parameters.

The target of data set [4] is T1, recombinant Mtb-DapA (Mtb-rDapA). Description: biochemical. To be noted: for Emax: read-out: Maximal Inhibition (%).
Data set [5] addresses T2, Mtb-rDapA. The experiment in a line: Size exclusion chromatography of Mtb-rDapA oligomerization. How it is done: Prior to gel filtration, the pre-packed Superdex 200 10/300 column (GE Healthcare) was pre-equilibrated with 50 mM Tris HCl pH 7.5, 150 mM NaCl and 10% glycerol. 25 μM Mtb-rDapA in 25 mM Tris/150 mM NaCl buffer was loaded in 500 μl volume. Multiple fractions of 1 ml volume were collected and each fraction runs on 12% SDS-PAGE gel electrophoresis. The ligand α-KPA in 1:5, 1:10 and 1:50 molar ratio of Mtb-rDapA was incubated with Mtb-rDapA and subjected to run as above. The chromatograms were collected by measuring absorption at 280 nm as a function of buffer volume at a flow rate of 0.3 ml/min. The column was calibrated by passing Apoferritin eluted at 10.5 ml, β-Amylase eluted at 12.5 ml, Alcohol dehydrogenase eluted at 13 ml, BSA eluted at 14.5 ml, carbonic anhydrase eluted at 16.9 ml, and cytochrome C eluted at 19 ml followed by a standard curve generation.
For orientation: In gel filtration, larger molecules generally elute earlier.

Data set [6] concerns the target T2, Mtb-rDapA. The experiment in a line: Fluorescence-based thermal shift assay. The format is binding. The conditions noted are these: ligand 0.2 mM to 1 mM; Mtb-rDapA Tm 84.8 °C. An excerpt:
The fluorescence based thermal shift assay for screening of identified ligands, which is based on the principle that ligand binding alters thermal stability of protein. This method allows us to monitor the protein denaturation upon heating using fluorescence based dye (Sypro orange, Sigma, USA), which binds to hydrophobic part of proteins during protein denaturation and emits fluorescence at 580 nm[43]. We can monitor the changes in fluorescence and generate a thermal melting curve using real time PCR. The mid-point of the melting curve designated as the melting temperature Tm corresponding to 50% of protein being denatured.
The thermal shift assay was carried out in the LightCycler^R LC480 qPCR machine using 384 well PCR plates (Roche, USA). An assay mixture of 20 μl contained 20 μM Mtb-rDapA, 15 X Sypro Orange (Sigma), 50 mM sodium phosphate buffer pH 7.4 and ligand in the range 0.2 mM to 1 mM. The ligands and Mtb-rDapA were diluted in sodium phosphate buffer. The PCR plates were sealed with optical seal, mixed well and centrifuged after the assay mixture was added. […] The fluorescence intensity was measured by excitation at 465 nm and emission at 580 nm. Curve fitting, melting temperature calculation and report generation on the raw Fluorescence based thermal shift assay (FTS) data were performed using pre-installed analysis software provided with the instrument (Roche, USA)[44].

In data set [7] the test system is CC(=O)C(=O)O. Description: purified protein, by the assay type. To be noted: pH 7.4; 37.0 °C.

Broadly, the pKi is the negative decadic logarithm of the Ki, by convention in mol/L. Broadly, the Km is the substrate concentration at which the rate is half of its maximum. Broadly, the pIC50 is the IC50 on a negative log10 scale, so that one unit is a factor of ten. One may read the inhibition as the relative decrease from the control value, in per cent.

pIC50, pKi: −log10 of the molar value.

T1 sequence (P9WP25 whole entry, looked up): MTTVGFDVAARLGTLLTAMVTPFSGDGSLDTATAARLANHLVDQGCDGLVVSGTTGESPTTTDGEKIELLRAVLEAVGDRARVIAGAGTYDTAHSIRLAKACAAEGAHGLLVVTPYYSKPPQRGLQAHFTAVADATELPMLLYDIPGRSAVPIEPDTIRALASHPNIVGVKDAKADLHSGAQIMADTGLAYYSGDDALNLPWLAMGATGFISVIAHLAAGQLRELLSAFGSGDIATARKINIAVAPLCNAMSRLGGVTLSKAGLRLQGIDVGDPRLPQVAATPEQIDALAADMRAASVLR
T2 sequence (P9WP25 whole entry, looked up): as above

On to `O=C(O)C(=O)CF` [3-fluoropyruvate], for which the pKi in data set [1] was 3.66.
With `N[C@@H](CC=O)C(=O)O` [ASA, L-aspartate-beta-semialdehyde], in data set [2] (read-out: Michaelis constant, Km, substrate of Mtb-rDapA), the Km was found to be 388 µM.
For the compound `O=C(O)c1cccc(C(=O)O)[n+]1[O-]` [N-oxide of dipicolinic acid], the pIC50 in data set [1] is 3.70.
On to `O=C(O)CCCCC(=O)C(=O)O` [compound 1, 2-oxoheptanedioic acid], for which the “reduction of THDP product peak (SRM peak area / relative abundance)” value in data set [3] (listed as KPA) is on record as “up to 50%”; in data set [3] (listed as α-KPA) it was 50%. Besides, the pKi in data set [4] is 4.49. Besides, the pIC50 in data set [4] (IC50) is 3.80; in data set [4] (IC50, pyruvate 500 μM, ASA 400 μM), 4.68; in data set [4] (IC50 of α-KPA, pyruvate 0.17 mM, ASA 400 μM, 10 min from start) it was 4.68; in data set [4] (IC50 of α-KPA, pyruvate 0.17 mM, ASA 400 μM, 20 min from start) it was 4.68; in data set [4] (IC50 of α-KPA, pyruvate 0.17 mM, ASA 400 μM, 30 min from start), 4.68; in data set [4] (IC50 of α-KPA, pyruvate 0.17 mM, ASA 400 μM, 40 min from start), 4.51. The pIC50 is 4.39 in data set [4] (IC50 of α-KPA, pyruvate 0.17 mM, ASA 400 μM, 50 min from start); 4.29 in data set [4] (IC50 of α-KPA, pyruvate 0.17 mM, ASA 400 μM, 60 min from start); 4.68 in data set [4] (IC50 of α-KPA, pyruvate 0.3 mM, ASA 400 μM, 10 min from start); 4.68 in data set [4] (IC50 of α-KPA, pyruvate 0.3 mM, ASA 400 μM, 20 min from start); 4.68 in data set [4] (IC50 of α-KPA, pyruvate 0.3 mM, ASA 400 μM, 30 min from start); 4.51 in data set [4] (IC50 of α-KPA, pyruvate 0.3 mM, ASA 400 μM, 40 min from start). Moreover, the pIC50 in data set [4] (IC50 of α-KPA, pyruvate 0.3 mM, ASA 400 μM, 50 min from start) is 4.39; in data set [4] (IC50 of α-KPA, pyruvate 0.3 mM, ASA 400 μM, 60 min from start), 4.29; in data set [4] (IC50 of α-KPA, pyruvate 1 mM, ASA 400 μM, 10 min from start) it was 4.68; in data set [4] (IC50 of α-KPA, pyruvate 1 mM, ASA 400 μM, 20 min from start), 4.68; in data set [4] (IC50 of α-KPA, pyruvate 1 mM, ASA 400 μM, 30 min from start), 4.68; in data set [4] (IC50 of α-KPA, pyruvate 1 mM, ASA 400 μM, 40 min from start) it was 4.51. For the same compound, the pIC50 was 4.39 in data set [4] (IC50 of α-KPA, pyruvate 1 mM, ASA 400 μM, 50 min from start); 4.29 in data set [4] (IC50 of α-KPA, pyruvate 1 mM, ASA 400 μM, 60 min from start); 4.21 in data set [4] (IC50 of α-KPA, pyruvate 2 mM, ASA 400 μM, 10 min from start); 4.21 in data set [4] (IC50 of α-KPA, pyruvate 2 mM, ASA 400 μM, 20 min from start); 4.15 in data set [4] (IC50 of α-KPA, pyruvate 2 mM, ASA 400 μM, 30 min from start); 4.09 in data set [4] (IC50 of α-KPA, pyruvate 2 mM, ASA 400 μM, 40 min from start). Also, the pIC50 in data set [4] (IC50 of α-KPA, pyruvate 2 mM, ASA 400 μM, 50 min from start) is 4.04; in data set [4] (IC50 of α-KPA, pyruvate 2 mM, ASA 400 μM, 60 min from start) it was 4.00. Further, the Emax in data set [4] stood at 88%. The inhibition at 400 µM in data set [4] (read-out: maximal inhibition) was 77%. Further, the “effect on Mtb-rDapA oligomerization” value in data set [5] (ratios of 1:5 and 1:10 of Mtb-rDapA to α-KPA) is on record as “the oligomerization was not affected”; in data set [5] (α-KPA in 50-fold molar excess, 37 °C, 5 min), “did not obtain any peak corresponding to either the tetramer or the octamer”. For the same compound, in data set [6], the “Tm increase of Mtb-rDapA upon binding” value stood at 1 °C. The “fold increase of IC50, pre-incubation with pyruvate vs pre-incubation with α-KPA” value in data set [2] was approximately 8 fold.
In the case of `O=C(O)c1ccccc1` [compound 5, Benzoic acid], the Emax in data set [4] came out at 2%. The “Inhibition of Mtb-rDapA (in words)” value in data set [2] is “None of these showed inhibition”.
The matching figures for `CCCC(=O)CC(=O)OC` [compound 7, Methyl 3-oxohexanoate]: 5% and “did not show any inhibition”.
On to `Nc1ccc(C(=O)O)c(O)c1` [compound 8, 4-amino-2-hydroxy-benzoic acid], for which the Emax in data set [4] is 4%. For the same compound, the “Inhibition of Mtb-rDapA (in words)” value in data set [2] is recorded as “None of these showed inhibition”.
The corresponding values for `O=C(O)COc1ccccc1` [compound 9, 2-phenoxyacetic acid] are 4% and “None of these showed inhibition”.
The corresponding values for `CCCCc1ccc(C(=O)O)nc1` [compound 10, 5-butylpyridine-2-carboxylic acid] are 5% and “None of these showed inhibition”.
Turning to `NC(=O)CCCCC(O)C(N)=O` (stereo not drawn) [compound 35, 2-Hydroxyheptanediamide], the Emax in data set [4] was determined as 21%.
Turning to `O=C(O)CCCN1C(=O)NC(=O)C1=O` [compound 36, 4-(2,4,5-Trioxoimidazolidin-1-yl) butanoic acid], the Emax in data set [4] came to 21%.
Still for that read-out and setting: under `NC(=O)c1ccc(C(=O)C(=O)O)cc1` [compound 37, 2-(4-Carbamoylphenyl)-2-oxoacetic acid] stands 15%; under `NC(=O)CSCCCC(=O)O` [compound 38, 4-((2-Amino-2-oxoethyl)thio) butanoic acid], 15%.
The same measure, in the same setting: with `CCOC(=O)CCCS(=O)(=O)CC(N)=O` [compound 39, Ethyl 4-((2-amino-2-oxoethyl)sulfonyl)butanoate] the figure was 12%.
As for `COC(=N)c1cccc(C(=N)OC)n1` [di-imidate of dimethyl pyridine-2,6-dicarboxylate], the negative logarithm of the IC50 (pIC50) in data set [1] is 3.70.
For `O=CC(=O)O` [glyoxylate], the pKi in data set [1] is 4.80.
In the case of `Nc1ccc(C(=O)O)cc1` [p-amino benzoic acid], the “Inhibition of Mtb-rDapA (in words)” value in data set [2] is “None of these showed inhibition”.
For the compound `CC(=O)C(=O)O` [pyruvate], in data set [6], the “Tm increase of Mtb-rDapA upon binding” value was 2 °C.
For the compound `CCC(=O)C(=O)O` [α-ketobutyrate], the pKi in data set [1] is 3.08.
Consider `CCCC(=O)C(=O)O` [α-ketovalerate], for which, in data set [1], the pKi is 3.15.
With “recombinant Mtb-DapA (Mtb-rDapA) (Mycobacterium tuberculosis H37Rv)”, in data set [7], the Michaelis constant (Km) is 148.8 µM.

These data come from PMC4977564, “Inhibition of Mycobacterium tuberculosis dihydrodipicolinate synthase by alpha-ketopimelic acid and its other structural analogues” (Scientific Reports, 2016).
